# US20220323437A1, “METHODS FOR TREATING PULMONARY ARTERIAL HYPERTENSION” (ACTELION PHARMACEUTICALS LTD, priority 2019, published 2022)
# Where two headings read alike, the source gives them in different places.
# What was measured:
# [1] = Vital signs, ECG, laboratory variables and WHO FC during switch from oral to i.v. selexipag in subjects with stable PAH; assay type: in vivo, human
# Method: This was a prospective, multicenter, open-label, single-sequence, cross-over, Phase 3 study. Based on the dose of selexipag received at study entry, subjects were allocated to one of the following groups, selexipag 200-1000 μg b.i.d. or selexipag 1200-1600 μg b.i.d. See, FIG. 1. The study comprised the following periods: (ii) Treatment and observation period: The treatment and observation period included the following consecutive periods: • Period 1 included oral selexipag pre-treatment period for 1 day, in-hospital. This period started with intake of the morning dose of oral selexipag on Day 1 at Visit 2 and ended the following day, before initiation of the first infusion of i.v. selexipag. • Period 2 included i.v. selexipag treatment period for 36 hours [3 infusions], in-hospital. This period started in the morning of Day 2 at Visit 2 with the start of the first infusion of i.v. selexipag and ended in the evening of Day 3 at Visit 2 before the evening administration of oral selexipag. Administration of oral selexipag was interrupted during the i.v. selexipag treatment period. • Period 3 included oral selexipag post-treatment period for 7 to 11 day. This period started in the evening of Day 3 at Visit 2 with the administration of oral selexipag and ended 7-11 days later, at Visit 3. The endpoints analyzed for (i) Period 1, Period 2, and Period 3 and follow-up period combined (ii) Period 1 and Period 2 combined, and (iii) Period 2 and Period 3 combined included discontinuations due to prostacyclin-associated AEs, discontinuations due to any AEs, AEs and SAEs, prostacyclin-associated AEs, PAH-related AEs, change from baseline in vital signs (systolic blood pressure [SBP], diastolic blood pressure [DBP], and pulse rate) and body weight, ECG abnormalities, marked laboratory abnormalities, and change from baseline in WHO FC.
# [2] = Pharmacokinetics of selexipag and ACT-333679 after oral and i.v. selexipag in subjects with stable PAH (Phase 3 switch study); assay type: in vivo, human; conditions: for AUC / Cmax: human, plasma, steady state; for AUC: read-out: AUCτ, ss Geom. Mean; for Cmax: read-out: Cmax, ss Geom. Mean
# Method: This was a prospective, multicenter, open-label, single-sequence, cross-over, Phase 3 study. Based on the dose of selexipag received at study entry, subjects were allocated to one of the following groups, selexipag 200-1000 μg b.i.d. or selexipag 1200-1600 μg b.i.d. See, FIG. 1. The study comprised the following periods:
# (ii) Treatment and observation period: The treatment and observation period included the following consecutive periods: • Period 1 included oral selexipag pre-treatment period for 1 day, in-hospital. This period started with intake of the morning dose of oral selexipag on Day 1 at Visit 2 and ended the following day, before initiation of the first infusion of i.v. selexipag. • Period 2 included i.v. selexipag treatment period for 36 hours [3 infusions], in-hospital. This period started in the morning of Day 2 at Visit 2 with the start of the first infusion of i.v. selexipag and ended in the evening of Day 3 at Visit 2 before the evening administration of oral selexipag. Administration of oral selexipag was interrupted during the i.v. selexipag treatment period. • Period 3 included oral selexipag post-treatment period for 7 to 11 day. This period started in the evening of Day 3 at Visit 2 with the administration of oral selexipag and ended 7-11 days later, at Visit 3.
# Selexipag was provided as a dry powder to be reconstituted as an injectable solution for i.v. administration. Before administration, selexipag dry powder was to be reconstituted and diluted with sterile 0.9% NaCl solution. Each subject received an i.v. selexipag dose that corresponded to the subject's individual stable dose of oral selexipag. […] See, Table 4.
# The intravenous infusion took place over a 87-minute period (2 infusions on Day 2 and 1 infusion on Day 3)
# The following PK endpoints were analyzed for selexipag and its active metabolite, ACT-333679, after oral selexipag in Period 1 and after i.v. selexipag administration in Period 2. See, FIG. 2. • The area under the plasma-concentration time curve (AUC) during a dose interval at steady state (AUCτ, ss). • The maximum plasma concentration at steady state (Cmax, ss). • The time to reach maximum plasma concentration at steady state (tmax, ss). • Trough plasma concentration at steady state (Ctrough, ss).
# [3] = selexipag versus placebo; cited from earlier work
# [4] = Period 1 (oral selexipag), total, N = 20
# [5] = Period 2 (iv selexipag), total, N = 20
# [6] = Period 2, high dose cohort (1200-1600 μg), N = 12
# [7] = Period 2, low dose cohort (200-1000 μg), N = 8
# [8] = Period 3 (oral selexipag) + Follow-up, total, N = 20
compound,measurement,setting,value
"CC(C)N(CCCCOCC(=O)NS(C)(=O)=O)c1cnc(-c2ccccc2)c(-c2ccccc2)n1 [selexipag, 2-{4-[(5,6-diphenylpyrazin-2-yl)(propan-2-yl)amino]butoxy}-N-(methanesulfonyl)acetamide]",Incidence of DBP < 50 (mmHg),[1]; [4],0 n (%)
same,Incidence of DBP decrease from baseline > 20 (mmHg),[1]; [4],1 (5.0) n (%)
same,Incidence of DBP ≥ 100 (mmHg),[1]; [4],0 n (%)
same,Incidence of SBP < 90 (mmHg),[1]; [4],0 n (%)
same,Incidence of SBP decrease from baseline > 40 (mmHg),[1]; [4],0 n (%)
same,Incidence of SBP ≥ 160 (mmHg),[1]; [4],0 n (%)
same,subjects with QTcF prolongation to >450 ms,[1]; Period 2,3 subjects
same,subjects with QTcF prolongation to >480 ms,[1]; Period 2,4 subjects
same,Incidence of DBP < 50 (mmHg),[1]; [5],5 n (%)
same,Incidence of DBP decrease from baseline > 20 (mmHg),[1]; [5],3 n (%)
same,Incidence of DBP ≥ 100 (mmHg),[1]; [5],0 n (%)
same,Incidence of SBP < 90 (mmHg),[1]; [5],2 n (%)
same,Incidence of SBP decrease from baseline > 40 (mmHg),[1]; [5],2 n (%)
same,Incidence of SBP ≥ 160 (mmHg),[1]; [5],1 n (%)
same,mean change from pre- to post-infusion in heart rate,"[1]; Period 2, infusion 1",2.1 bpm
same,mean change from pre- to post-infusion in heart rate,"[1]; Period 2, infusion 2",0.1 bpm
same,mean change from pre- to post-infusion in heart rate,"[1]; Period 2, infusion 3",3.5 bpm
same,Incidence of DBP < 50 (mmHg),[1]; [6],3 n (%)
same,Incidence of DBP decrease from baseline > 20 (mmHg),[1]; [6],2 n (%)
same,Incidence of DBP ≥ 100 (mmHg),[1]; [6],0 n (%)
same,Incidence of SBP < 90 (mmHg),[1]; [6],1 n (%)
same,Incidence of SBP decrease from baseline > 40 (mmHg),[1]; [6],1 n (%)
same,Incidence of SBP ≥ 160 (mmHg),[1]; [6],1 n (%)
same,Incidence of DBP < 50 (mmHg),[1]; [7],2 (25.0) n (%)
same,Incidence of DBP decrease from baseline > 20 (mmHg),[1]; [7],1 (12.5) n (%)
same,Incidence of DBP ≥ 100 (mmHg),[1]; [7],0 n (%)
same,Incidence of SBP < 90 (mmHg),[1]; [7],1 (12.5) n (%)
same,Incidence of SBP decrease from baseline > 40 (mmHg),[1]; [7],1 (12.5) n (%)
same,Incidence of SBP ≥ 160 (mmHg),[1]; [7],0 n (%)
same,Incidence of DBP < 50 (mmHg),[1]; [8],0 n (%)
same,Incidence of DBP decrease from baseline > 20 (mmHg),[1]; [8],2 (10.0) n (%)
same,Incidence of DBP ≥ 100 (mmHg),[1]; [8],0 n (%)
same,Incidence of SBP < 90 (mmHg),[1]; [8],0 n (%)
same,Incidence of SBP decrease from baseline > 40 (mmHg),[1]; [8],0 n (%)
same,Incidence of SBP ≥ 160 (mmHg),[1]; [8],0 n (%)
same,subjects (of the 7 with QTcF prolongation in Period 2) who already had QTcF prolongation to >450 ms in Period 1,[1]; Visit 2 Day 2 prior to the start of i.v. infusion,6
same,AE of hypotension,[1]; any subject,no AE of hypotension
same,changes in systolic blood pressure of >40 mmHg,[1]; any subject,No changes
same,"hemoglobin, mean change from baseline",[1]; at Visit 3 (Day 12±2 days),1.2 g/L
same,"hemoglobin, mean change from baseline",[1]; baseline (129.4 g/L) to Visit 2 Day 3,-5.7 g/L
same,changes in WHO FC,"[1]; during the study, any subject",No changes
same,changes from baseline in other hematology and clinical chemistry variables,"[1]; human, in vivo",unremarkable
same,"tmax, ss between the i.v. and oral selexipag periods",[2]; Period 2 vs Period 1,comparable
same,slope of dose proportional increase in exposure,"[2]; after i.v. selexipag, 450-1800 μg b.i.d. dose range",0.798
same,AUC,"[2]; iv, Period 2 (i.v. selexipag)",18.8 ng·h/mL
same,Cmax,"[2]; iv, Period 2 (i.v. selexipag)",7.8 ng/mL
same,AUC,[2]; Period 1 (oral selexipag),8.7 ng·h/mL
same,Cmax,[2]; Period 1 (oral selexipag),3.9 ng/mL
same,"dose-normalized geometric mean ratio (i.v./oral selexipag) for AUCτ, ss (90% CI)",[2]; i.v. to oral dose ratio 1.125,"2.13 (1.67, 2.70)"
same,"dose-normalized geometric mean ratio (i.v./oral selexipag) for Cmax, ss (90% CI)",[2]; i.v. to oral dose ratio 1.125,"1.98 (1.62, 2.43)"
same,risk of the primary composite end point of death or a complication related to pulmonary arterial hypertension,[3],significantly lower
